From patent publication US20040171073A1, “Compounds for modulation of cholesterol transport” (Massachusetts Institute of Technology, priority 2002, published 2004)
Read-outs that look alike come from different tables or passages of the source.

Biological target: T1, murine SR-BI (Mus musculus, UniProt Q61009)
T1 construct: expressed in transfected cells; host or cells: ldlA-7 (LDL receptor deficient Chinese hamster ovary cells)
T1 sequence (Q61009 1-509): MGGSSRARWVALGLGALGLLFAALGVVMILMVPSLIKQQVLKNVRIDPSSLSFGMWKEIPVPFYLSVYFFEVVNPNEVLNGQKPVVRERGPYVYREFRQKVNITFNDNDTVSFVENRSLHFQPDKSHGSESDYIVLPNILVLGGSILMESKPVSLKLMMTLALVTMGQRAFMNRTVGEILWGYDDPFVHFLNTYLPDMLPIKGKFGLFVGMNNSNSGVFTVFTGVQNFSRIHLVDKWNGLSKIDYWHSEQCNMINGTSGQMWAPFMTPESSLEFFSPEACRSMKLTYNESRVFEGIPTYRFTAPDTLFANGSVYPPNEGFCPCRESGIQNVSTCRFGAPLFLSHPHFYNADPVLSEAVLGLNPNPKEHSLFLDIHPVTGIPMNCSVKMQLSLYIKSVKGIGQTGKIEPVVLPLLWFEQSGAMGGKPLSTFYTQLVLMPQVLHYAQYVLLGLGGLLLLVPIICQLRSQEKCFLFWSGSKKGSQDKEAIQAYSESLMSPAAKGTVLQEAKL
Experiment: Uptake of DiI from DiI-HDL by ldlA[mSR-BI] cells (high throughput screen and concentration dependence)
Type: cell-based

Row | ENDOHDL Test 1 (Test 1) | ENDOHDL Test 2 (Test 2) | Structure (SMILES) | ENDOHDL Test 1 | ENDOHDL Test 2
1 | 0.79 | 0.73 | O=C1C(=O)c2ccc(Oc3ccc([N+](=O)[O-])cc3)c3cccc1c23 [MIT 9952-95] | – | –
2 | 1.32 | 1.17 | O=C1CC(N2CCOCC2)C(=O)N1c1ccc(Br)cc1 (stereo not shown) [MIT 9952-96] | – | –
3 | 0.5 | 0.51 | O=C(/C=C/c1ccccc1)NC(NC(=S)Nc1cccc([N+](=O)[O-])c1)C(Cl)(Cl)Cl (stereo not shown) [MIT 9952-100] | – | –
4 | 0.56 | 0.49 | O=C(NC(NC(=S)Nc1cccc2ccccc12)C(Cl)(Cl)Cl)c1cccc([N+](=O)[O-])c1 (stereo not shown) [MIT 9952-102] | – | –
5 | 0.6 | 0.53 | O=C(NC(NC(=S)Nc1ccc(Cl)cc1Cl)C(Cl)(Cl)Cl)c1ccco1 (stereo not shown) [MIT 9952-106] | – | –
6 | 1.19 | 1.75 | CC1CC2(C)CC(C(=O)O2)C1C(=O)OCCOc1ccccc1 (stereo not shown) [MIT 9952-109] | – | –
7 | 1.17 | 1.33 | O=C(Cl)c1ccccc1NS(=O)(=O)/C=C/c1ccccc1 [MIT 9952-110] | – | –
8 | 1.26 | 1.58 | CC(C)C(=O)NC(NC(=S)Nc1cccc(C(=O)Cl)c1)C(Cl)(Cl)Cl (stereo not shown) [MIT 9952-117] | – | –
9 | 0.51 | 0.63 | COc1cccc(NC(=O)c2sc(-c3ccccc3)nc2-c2ccc([N+](=O)[O-])cc2)c1 [MIT 9952-118] | – | –
10 | 0.62 | 0.64 | CC(=O)c1c(C)n(-c2ccccc2)c2ccc(O)cc12 [MIT 9952-119] | – | –
11 | 0.54 | 0.57 | CCOC(=O)c1c(NC(=O)c2ccc(N)c([N+](=O)[O-])c2)sc2c1CCCC2 [MIT 9952-121] | – | –
12 | 0.55 | 0.82 | NC(/N=N/c1ccccc1)=N\Nc1ccccc1 [MIT 9952-122] | – | –
13 | 0.59 | 0.64 | O=C(Cc1ccccc1)N/N=C/c1cccn1-c1ccc([N+](=O)[O-])cc1 [MIT 9952-123] | – | –
14 | 1.33 | 1.17 | O=C(COc1ccc(Cl)cc1)N/N=C/c1ccc(Cl)cc1 [MIT 9952-124] | – | –
15 | 0.63 | 0.66 | COc1ccc([N+](=O)[O-])cc1NC(=S)NC(NC(=O)c1ccccc1Br)C(Cl)(Cl)Cl (stereo not shown) [MIT 9952-125] | – | –
16 | 0.55 | 0.53 | NC(=O)N/N=C/c1ccc(-c2ccc([N+](=O)[O-])cc2)o1 [MIT 9952-126] | – | –
17 | 0.62 | 0.6 | O=C(COc1ccc(Cl)cc1Cl)Nc1cccc(C(=O)O)c1 [MIT 9952-127] | – | –
18 | 1.23 | 1.36 | CCOC(C(=O)OC(C)CN(C)C)(c1ccccc1)c1ccccc1.Cl (stereo not shown) [MIT 9952-128] | – | –
19 | 0.62 | 0.65 | Cc1ccc2c(c1Br)/C(=N/NC(=O)Nc1ccccc1)C(=O)N2 [MIT 9952-130] | – | –
20 | 0.56 | 0.52 | COc1ccc(C(=O)NC(Nc2cccc3ccccc23)C(Cl)(Cl)Cl)cc1 (stereo not shown) [MIT 9952-131] | – | –
21 | – | – | O=C(Nc1cc(Cl)ccc1Cl)c1cc(Br)ccc1NS(=O)(=O)c1ccc(Cl)c([N+](=O)[O-])c1 [MIT 9952-132] | 0.65 | 0.46
22 | 0.58 | 0.59 | COc1ccccc1C(=O)NC(Nc1cccc2ccccc12)C(Cl)(Cl)Cl (stereo not shown) [MIT 9952-134] | – | –
23 | 0.54 | 0.63 | Cc1nn(-c2ccccc2)c(Cl)c1/N=N/c1ccccc1 [MIT 9952-138] | – | –
24 | 0.52 | 0.58 | COc1ccc([N+](=O)[O-])cc1NC(=S)NC(NC(=O)C(c1ccccc1)c1ccccc1)C(Cl)(Cl)Cl (stereo not shown) [MIT 9952-140] | – | –

Row | ENDOHDL Test 1 (Test 1) | ENDOHDL Test 2 (Test 2) | Structure (SMILES) | ENDOHDL Test 1 | ENDOHDL Test 2
25 | 0.63 | 0.77 | CCN(CC)C(=O)N1CCN(c2ccc(Nc3ccnc4cc5ccccc5cc34)cc2)CC1 [MIT 9952-141] | – | –
26 | 0.66 | 0.65 | CCn1c(COC)c(-c2ccccc2)c2cc([N+](=O)[O-])ccc21 [MIT 9952-143] | – | –
27 | 0.56 | 0.56 | Nc1ccc(C(=O)Nc2ccc(C3Nc4ccc(SC(=O)c5ccc(N)cc5)c(Cl)c4S3)cc2)cc1 (stereo not shown) [MIT 9952-144] | – | –
28 | 1.28 | 1.34 | O=C(Oc1ccc2c(=O)c(Oc3ccccc3)coc2c1)C1CCCN1C(=O)OCc1ccccc1 (stereo not shown) [MIT 9952-145] | – | –
29 | 0.63 | 0.53 | FC(F)(F)c1cccc(N2N=C(/C=C/c3ccccc3)CC2c2ccccc2)c1 (stereo not shown) [MIT 9952-147] | – | –
30 | 0.34 | 0.52 | Cc1cc(C(=O)N/N=C\c2c(O)ccc3ccccc23)[nH]n1 [MIT 9952-150] | – | –
31 | 1.22 | 1.36 | COC(=O)/C=C1/Nc2ccccc2OC1=O [MIT 9952-151] | – | –
32 | 0.51 | 0.43 | CN(C)CC(=O)Nc1ccc2c(c1)Nc1ccccc1CC2.Cl [MIT 9952-152] | – | –
33 | 0.6 | 0.57 | Cc1ccc(C(C)C)c(OCC(=O)Nc2cc([N+](=O)[O-])ccc2C)c1 [MIT 9952-153] | – | –
34 | 0.47 | 0.45 | Cc1ccc(C(C)C)cc1OCC(=O)N/N=C\c1cc([N+](=O)[O-])ccc1O [MIT 9952-154] | – | –
35 | 0.69 | 0.47 | COc1c(Cl)cc(Cl)cc1C(=O)Nc1ccc(Br)cc1 [MIT 9952-155] | – | –
36 | 0.57 | 0.62 | Clc1ccc(-c2nc3ccc4ccccc4c3c3c2CCCC3)cc1 [MIT 9952-156] | – | –
37 | 1.26 | 1.21 | CC1(C)CC(=O)C(=Cc2c(Cl)ccc3ccccc23)C(=O)C1 [MIT 9952-157] | – | –
38 | 0.42 | 0.39 | CCN(CC)CC(=O)Nc1ccc2c(c1)Nc1ccccc1CC2.Cl [MIT 9952-158] | – | –
39 | 0.48 | 0.55 | Cc1nc(-c2ccc([N+](=O)[O-])cc2)c(C(=O)Nc2ccccc2)s1 [MIT 9952-160] | – | –
40 | 1.37 | 1.5 | O=C(Nc1ccc(Cl)cc1)c1ccc(N2C(=O)c3ccc(C(=O)Nc4ccc(Cl)cc4)cc3C2=O)cc1 [MIT 9952-161] | – | –
41 | 0.6 | 0.69 | CC1=C(C(=O)OCc2ccccc2)C(c2ccc(N(C)C)cc2)NC(=O)N1 (stereo not shown) [MIT 9952-163] | – | –
42 | 0.6 | 0.61 | C/C(=N\NC(=O)c1ccc(-c2ccccc2)cc1)c1cccc(N)c1 [MIT 9952-164] | – | –
43 | 0.57 | 0.6 | CCOC(=O)c1sc(-c2ccccc2)nc1-c1ccc([N+](=O)[O-])cc1 [MIT 9952-165] | – | –
44 | 0.56 | 0.67 | CC(F)(F)c1cccc(NC(=O)c2sc(-c3ccccc3)nc2-c2ccc([N+](=O)[O-])cc2)c1 [MIT 9952-166] | – | –
45 | 1.32 | 1.18 | O=C(CC1=CCCCC1)Nc1cc([N+](=O)[O-])ccc1O [MIT 9952-167] | – | –
46 | 0.54 | 0.54 | O=C(N/N=C\c1ccccc1O)c1ccc(O)cc1 [MIT 9952-170] | – | –
47 | 0.58 | 0.54 | O=C1CC(S/C(=N\c2ccccc2)Nc2ccccc2)C(=O)N1c1cccc2ccccc12 (stereo not shown) [MIT 9952-171] | – | –
48 | 0.55 | 0.56 | O=C(Nc1ccc(Oc2ccc(Cl)c3cccnc23)c(Cl)c1)c1ccc([N+](=O)[O-])cc1 [MIT 9952-172] | – | –

Row | Structure (SMILES) | ENDOHDL Test 1 (Test 1) | ENDOHDL Test 2 (Test 2) | ENDOHDL Test 1 | ENDOHDL Test 2
49 | Cc1nn(-c2ccc([N+](=O)[O-])cc2)c(Cl)c1[N+](=O)[O-] [MIT 9952-103] | 0.56 | 0.61 | – | –
50 | CC1(C)C(C(=O)OCC(=O)c2ccc([N+](=O)[O-])cc2)CCC1C(=O)OCC(=O)c1ccc([N+](=O)[O-])cc1 (stereo not shown) [MIT 9952-129] | 0.57 | 0.54 | – | –
51 | CN(C)c1ccc(C(Cl)(c2ccc(N(C)C)cc2)C2CN3CCC2CC3)cc1.Cl (stereo not shown) [MIT 9952-137] | 1.32 | 1.25 | – | –
52 | O=[N+]([O-])c1ccc(Cl)c(/C=N/c2ccc(S(=O)(=O)c3ccc(/N=C/c4cc([N+](=O)[O-])ccc4Cl)cc3)cc2)c1 [MIT 9952-139] | 1.22 | 1.39 | – | –
53 | CCCCN1CCC(O)(c2ccccc2)C(C(=O)c2ccccc2)C1 (stereo not shown) [MIT 9952-142] | 1.28 | 1.32 | – | –
54 | Br.CCOC(=O)c1c(CSC(=N)N)n(C)c2cc(Br)c(OC(C)=O)cc12 [MIT 9952-146] | 0.62 | 0.71 | – | –
55 | CN(C)/C=N/C(=O)CN1CCCC1=O [MIT 9952-148] | 1.44 | 1.32 | – | –
56 | COc1ccccc1NC(=O)Nc1ccc2ccccc2c1 [MIT 9952-149] | 0.62 | 0.6 | – | –
57 | COc1ccc(COCC(Cl)CN2CCCCC2)cc1OC.Cl (stereo not shown) [MIT 9952-159] | 1.28 | 1.23 | – | –
58 | O=C(Nc1ccc(NC(=O)c2cccc([N+](=O)[O-])c2)c(Cl)c1)c1cccc([N+](=O)[O-])c1 [MIT 9952-162] | 0.55 | 0.4 | – | –
59 | C=CC[n+]1c(C)n(CC)c2cc(Cl)c(Cl)cc21.[I-] [MIT 9952-169] | 0.54 | 0.6 | – | –
